According to patent US10071998B2, “Iminothiadiazine dioxides bearing an amine-linked substituent as BACE inhibitors, compositions, and their use” (Merck Sharp & Dohme Corp., priority 2015, dated 2018):
Like-named read-outs stand apart in the source and are kept apart here.

Tests used:
[1] = molecular target: Recombinant human soluble BACE-1 catalytic domain (Homo sapiens (Human), UniProt P56817); test: BACE-1 Ki Assay (BACE-1 HTRF FRET Assay); assay type: biochemical
Procedure: Assay 1: BACE-1 Ki Assay (BACE-1 HTRF FRET Assay)
The compounds of the invention were assessed for their ability to inhibit BACE-1 using the following assay.
The following reagents were used in this assay. Na^+-Acetate pH 5.0; 1% Brij-35; Glycerol; Dimethyl Sulfoxide (DMSO); Recombinant human soluble BACE-1 catalytic domain (>95% pure); APP Swedish mutant peptide substrate (QSY7-APP^swe-Eu): QSY7-EISEVNLDAEFC-Europium-amide.
A homogeneous time-resolved FRET assay can be used to determine IC50 values for inhibitors of the soluble human BACE-1 catalytic domain. This assay monitors the increase of 620 nm fluorescence that resulted from BACE-1 cleavage of an APPswedish APP^swe mutant peptide FRET substrate (QSY7-EISEVNLDAEFC-Europium-amide). This substrate contains an N-terminal QSY7 moiety that serves as a quencher of the C-terminal Europium fluorophore (620 nm Em). In the absence of enzyme activity, 620 nm fluorescence is low in the assay and increased linearly over 3 hours in the presence of uninhibited BACE-1 enzyme. Inhibition of BACE-1 cleavage of the QSY7-APP^swe-Eu substrate by inhibitors is manifested as a suppression of 620 nm fluorescence.
Varying concentrations of inhibitors at 3× the final desired concentration in a volume of 10 ul are preincubated with purified human BACE-1 catalytic domain (3 nM in 10 μl) for 30 minutes at 30° C. in reaction buffer containing 20 mM Na-Acetate pH 5.0, 10% glycerol, 0.1% Brij-35 and 7.5% DSMO. Reactions are initiated by addition of 10 μl of 600 nM QSY7-APP^swe-Eu substrate (200 nM final) to give a final reaction volume of 30 μl in a 384 well Nunc HTRF plate. The reactions are incubated at 30° C. for 1.5 hours. The 620 nm fluorescence is then read on a Rubystar HTRF plate reader (BMG Labtechnologies) using a […] delay followed by a 400 millisecond acquisition time window. Inhibitor IC50 values are derived from non-linear regression analysis of concentration response curves. Ki values are then calculated from IC50 values using the Cheng-Prusoff equation using a previously determined […] of 8 μM for the QSY7-APP^swe-Eu substrate at BACE-1. The example compounds of the invention were measured in this assay.

[2] = test system: CSF levels of Aβ1-40 (Aβ40); test: Aβ Reduction In Vivo (rat CSF Aβ40); conditions: 3 h, 10 mg/kg oral gavage
Procedure: Assay 3: Aβ Reduction In Vivo
The in vivo efficacy and/or potency of BACE inhibitors (test compounds) can be evaluated using a variety of animal models, including mouse, rat, dog, and monkey, and these animals can be wild type, transgenic, or gene knockout animals.
Generally, animals are administered (by oral gavage, intravenous injection, or by other suitable route) a test compound in doses ranging from, for example, 0.1 mg/kg (mg of compound per kg of animal body weight) to 100 mg/kg formulated in vehicles, such as cyclodextrin, phosphate buffer, hydroxypropyl methylcellulose or other suitable vehicles. One to twenty-four hours following the administration of compound, animals are sacrificed, and tissues (for example, brain, cerebrospinal fluid (CSF), and/or plasma) are collected for analysis of Aβ levels and/or test compound concentrations (Dovey et al., 2001, Journal of Neurochemistry, 76, 173-181). Tissue samples are processed appropriately and then analyzed for the presence of Aβ by specific sandwich ELISA assays based on electrochemiluminescence (ECL) technology.
For example, in the following assay for which data are reported below, male CD IGS rats (body weight approximately 120 g, Charles River Laboratories, Kingston, N.Y.) were used to asses lowering of CSF levels of Aβ1-40 (Aβ40) in the presence of compounds of the invention. At time 0, animals were administered by oral gavage a test compound at a dose of 10 mg/kg in 20% hydroxypropyl-β-cyclodextrin (dosing volume 5 mL/kg). A separate group of animals received 20% hydroxypropyl-β-cyclodextrin alone to serve as the vehicle control group. Three hours after administration, the rats were euthanized with excess CO2. Immediately following euthanasia, CSF was collected from the cisterna magna and quickly frozen on dry ice. Samples were stored at −80° C. until quantification of Aβ40 levels.
The measurement of endogenous rat Aβ40 in CSF relied on the 585 antibody (Ab585, BioSource, NONO585), which specifically recognizes the N-terminal sequence of rodent Aβ40, and on the monoclonal antibody, G2-10, which specifically recognizes the free C-terminus of Aβ40. Ab585 was labeled with biotin (b-Ab585) by first dialyzing the antibody sample extensively versus PBS (pH 7.8) to remove impurities, followed by dilution to between 1 and 2 mg/mL protein concentration. EZ-Link Sulfo-NHS-LC-Biotin (Pierce) was dissolved in PBS (pH 7.8) at a concentration of 1 mg/mL immediately prior to use. Ab585 was labeled with EZ-Link Sulfo-NHS-LC-biotin using a 10:1 biotin:antibody ratio by incubation at room temperature for 1 hour. The labeling reaction was quenched by addition of 1.0 M glycine to a final concentration of 0.1 M followed by 10 minute incubation at room temperature. Glycine was removed by extensive dialysis versus PBS.
For rat CSF Aβ40 determinations, a calibration curve of various concentrations of synthetic rodent Aβ40 was assayed in parallel with rat CSF samples in duplicate using an avidin-coated 96-well MSD plate (Mesoscale Diagnostics). Either 50 μL of rodent Aβ40 standards diluted in PBS (pH 7.4) supplemented with 1% BSA and 1% Tween-20 (standard diluent buffer) or 40 μL of standard diluent buffer plus 10 μL rat CSF were added to each 96 well avidin-coated plate. To each well was added 50 μL of 0.1 M HEPES (pH 7.5), 2% BSA, 2% Tween-20, 0.3 M NaCl (2× Aβ40 buffer) supplemented with the b-Ab585 capture and ruthenylated-G2-10 detection antibodies diluted to 1 μg/mL and 0.5 μg/mL, respectively. Plates were shaken for 1 min on a microplate shaker, covered to protect from light and incubated overnight (˜16 h) at 4° C. For detection, plates were first washed twice with 100 μL of 1×CSF Aβ40 buffer followed by addition of 160 μL of 1×MSD read buffer-T (Mesoscale Diagnostics) diluted in 1×CSF Aβ40 buffer. Plates were read on a MSD Sector Imager 2400 model (Mesoscale Diagnosotics). […]

[3] = molecular target: purified human autoBACE-2 (Homo sapiens (Human), UniProt Q9Y5Z0); test: BACE-2 Assay (BACE-HTRF assay); assay type: biochemical; conditions: Table 1; Ki calculated from IC50 with Cheng-Prusoff equation; read-out: BACE2 Ki
Sequence of purified human autoBACE-2 (Q9Y5Z0 63-473): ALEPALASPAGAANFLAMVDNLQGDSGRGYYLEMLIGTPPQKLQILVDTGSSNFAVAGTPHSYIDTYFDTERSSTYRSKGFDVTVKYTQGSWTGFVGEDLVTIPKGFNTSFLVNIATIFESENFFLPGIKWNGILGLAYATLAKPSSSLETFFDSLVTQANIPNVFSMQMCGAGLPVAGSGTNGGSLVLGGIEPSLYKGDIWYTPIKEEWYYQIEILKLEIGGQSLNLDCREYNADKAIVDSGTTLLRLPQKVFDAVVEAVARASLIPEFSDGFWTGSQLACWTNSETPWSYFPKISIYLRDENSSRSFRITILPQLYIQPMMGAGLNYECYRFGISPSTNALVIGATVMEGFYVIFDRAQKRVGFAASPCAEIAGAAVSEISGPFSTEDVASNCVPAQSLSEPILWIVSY
Procedure: Inhibitor IC50s, at purified human autoBACE-2 are determined in a time-resolved endpoint proteolysis assay that measures hydrolysis of the QSY7-EISEVNLDAEFC-Eu-amide FRET peptide substrate (BACE-HTRF assay). BACE-mediated hydrolysis of this peptide results in an increase in relative fluorescence (RFU) at 620 nm after excitation with 320 nm light. Inhibitor compounds, prepared at 3× the desired final concentration in 1× BACE assay buffer (20 mM sodium acetate pH 5.0, 10% glycerol, 0.1% Brij-35) supplemented with 7.5% DMSO are pre-incubated with an equal volume of autoBACE-2 enzyme diluted in 1×BACE assay buffer (final enzyme concentration 1 nM) in black 384-well NUNC plates for 30 minutes at 30° C. The assay is initiated by addition of an equal volume of the QSY7-EISEVNLDAEFC-Eu-amide substrate (200 nM final concentration, Km=8 μM […] for autoBACE-2) prepared in 1×BACE assay buffer supplemented with 7.5% DMSO and incubated for 90 minutes at 30° C. DMSO is present at 5% final concentration in the assay. Following laser excitation of sample wells at 320 nm, the fluorescence signal at 620 nm is collected for 400 ms following a 50 μs delay on a RUBYstar HTRF plate reader (BMG Labtechnologies). Raw RFU data is normalized to maximum (1.0 nM BACE/DMSO) and minimum (no enzyme/DMSO) RFU values. IC50 values are determined by nonlinear regression analysis (sigmoidal dose response, variable slope) of percent inhibition data with minimum and maximum values set to 0 and 100 percent respectively. Similar IC50s are obtained when using raw RFU data. The Ki values are calculated from the IC50 using the Cheng-Prusoff equation.

[4] = Table 1, Ki calculated from IC50 with Cheng-Prusoff equation, read-out: BACE1 Ki
[5] = Table 2, male CD IGS rats, CSF three hours after administration, percent change vs vehicle cohort

Sequence of Recombinant human soluble BACE-1 catalytic domain (P56817 75-416): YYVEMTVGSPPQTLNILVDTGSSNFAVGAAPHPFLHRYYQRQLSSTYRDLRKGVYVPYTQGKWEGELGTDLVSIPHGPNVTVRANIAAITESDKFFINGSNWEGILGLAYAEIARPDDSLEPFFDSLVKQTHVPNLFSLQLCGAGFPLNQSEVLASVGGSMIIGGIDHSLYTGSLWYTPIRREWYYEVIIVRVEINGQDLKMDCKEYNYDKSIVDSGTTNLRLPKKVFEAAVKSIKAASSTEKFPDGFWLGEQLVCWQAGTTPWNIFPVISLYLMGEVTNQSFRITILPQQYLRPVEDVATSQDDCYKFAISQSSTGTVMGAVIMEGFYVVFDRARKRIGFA

Compound	Ki ([1]; Table 3, comparator compounds of WO2011044181, read-out: BACE-1 Ki Nm) [nM]	Ki [1, 4] [nM]	Ki ([1]; Table 2, read-out: BACE1 Ki) [nM]	Ki [3] [nM]	change in vivo at 10 mg/kg ([2]; Table 3, comparator compounds of WO2011044181, rats, CSF at three hours, percent change vs vehicle) [%]	change in vivo at 10 mg/kg [2, 5] [%]
COc1cccnc1Nc1ccnc([C@]2(C)CS(=O)(=O)N(C)C(=N)N2)c1 [165 (Table XXI), reference compound]	48				-11	
COc1cnc2c(Nc3ccc(F)c([C@]4(C)CS(=O)(=O)N(C)C(=N)N4)c3)nccc2n1 [Example 9, N-{4-fluoro-3-[(5R)-3-imino-2,5-dimethyl-1,1-dioxido-1,2,4-thiadiazinan-5-yl]phenyl}-2-methoxypyrido[3,4-b]pyrazin-5-amine]		2.6	2.6	3.5		-68
CN1C(=N)N[C@](C)(c2c(F)ccc(Nc3nccc4cc(C#N)cnc34)c2F)CS1(=O)=O [Example 11, 8-({2,4-difluoro-3-[(5R)-3-imino-2,5-dimethyl-1,1-dioxido-1,2,4-thiadiazinan-5-yl]phenyl}amino)-1,7-naphthyridine-3-carbonitrile]		2.1	2.1	1.1		-50
CN1C(=N)N[C@](C)(c2cc(Nc3nccc4nc(C(F)F)cnc34)ccc2F)CS1(=O)=O [Example 12, 2-(difluoromethyl)-N-{4-fluoro-3-[(5R)-3-imino-2,5-dimethyl-1,1-dioxido-1,2,4-thiadiazinan-5-yl]phenyl}pyrido[3,4-b]pyrazin-5-amine]		5.2	5.2	1.8		-44
COc1cnc2c(Nc3ccc(F)c([C@]4(C)CS(=O)(=O)N(C)C(=N)N4)c3)ncnc2c1 [Example 14, N-{4-fluoro-3-[(5R)-3-imino-2,5-dimethyl-1,1-dioxido-1,2,4-thiadiazinan-5-yl]phenyl}-7-methoxypyrido[3,2-d]pyrimidin-4-amine]		4.3	4.3	4.4		-55

Now from value to compound, other results behind:

Ki ([1]; Table 3, comparator compounds of WO2011044181, read-out: BACE-1 Ki Nm) [nM]	Ki [1, 4] [nM]	Ki ([1]; Table 2, read-out: BACE1 Ki) [nM]	Ki [3] [nM]	Compound	change in vivo at 10 mg/kg ([2]; Table 3, comparator compounds of WO2011044181, rats, CSF at three hours, percent change vs vehicle) [%]	change in vivo at 10 mg/kg [2, 5] [%]
	11.7	12	5.8	COc1cnc2c(Nc3ccc(F)c([C@]4(C)CS(=O)(=O)N(C)C(=N)N4)c3)nccc2c1 [Example 4, N-{4-fluoro-3-[(5R)-3-imino-2,5-dimethyl-1,1-dioxido-1,2,4-thiadiazinan-5-yl]phenyl}-3-methoxy-1,7-naphthyridin-8-amine]		-45
	1.31	1.3	0.46	CN1C(=N)N[C@](C)(c2cc(Nc3nccc4cc(C#N)cnc34)ccc2F)CS1(=O)=O [Example 6, 8-({4-fluoro-3-[(5R)-3-imino-2,5-dimethyl-1,1-dioxido-1,2,4-thiadiazinan-5-yl]phenyl}amino)-1,7-naphthyridine-3-carbonitrile]		-50
	3.2	3.2	3	CN1C(=N)N[C@](C)(c2cc(Nc3ncnc4cc(C#N)cnc34)ccc2F)CS1(=O)=O [Example 7, 4-({4-fluoro-3-[(5R)-3-imino-2,5-dimethyl-1,1-dioxido-1,2,4-thiadiazinan-5-yl]phenyl}amino)pyrido[3,2-d]pyrimidine-7-carbonitrile]		-21
	2.1	2.1	0.24	CN1C(=N)N[C@](C)(c2cc(Nc3nccc4cc(F)cnc34)ccc2F)CS1(=O)=O [Example 8, 3-fluoro-N-{4-fluoro-3-[(5R)-3-imino-2,5-dimethyl-1,1-dioxido-1,2,4-thiadiazinan-5-yl]phenyl}-1,7-naphthyridin-8-amine]		-21
